Reference: US9073895B2 (Boehringer Ingelheim International GmbH, priority 2010, dated 2015)

Biological target: T1, recombinant human FLAP protein (Homo sapiens, UniProt P20292)
T1 construct: made in house; host or cells: Sf9 insect cells (membrane fraction, 100,000 x g pellet)
T1 sequence (P20292 1-161): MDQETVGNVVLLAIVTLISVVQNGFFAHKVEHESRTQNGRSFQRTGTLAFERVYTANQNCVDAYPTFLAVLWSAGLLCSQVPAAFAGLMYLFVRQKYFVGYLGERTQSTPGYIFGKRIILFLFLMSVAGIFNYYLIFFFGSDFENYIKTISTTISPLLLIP
Assay: FLAP binding assay (SPA, displacement of [125I]L-691,831)
Conditions: membranes of sf9 cells expressing human FLAP, [125I]L-691,831 probe; read-out: hFLAP binding IC50
Procedure: Compounds are assessed for the ability to bind to FLAP in a binding assay that measures compound-specific displacement of an iodinated (^125I) FLAP inhibitor via a Scintillation Proximity Assay format (adapted from S. Charleson et al., Mol. Pharmacol., 1992, 41, 873-879).
Cell pellets produced from sf9 insect cells expressing recombinant human FLAP protein are resuspended in buffer A [15 mM Tris-HCl (pH 7.5), 2 mM MgCl2, 0.3 mM EDTA, 1 mM PMSF]. The cells are lysed with a Dounce homogenizer and the material is centrifuged at 10,000×g for 10 minutes. The supernatant is then collected and centrifuged at 100,000×g for 60 minutes. To prepare membrane protein for an assay, an aliquot of the 100,000×g pellet is resuspended in 1 ml of buffer A, Dounce homogenized, and finally subjected to polytron mixing (30 seconds). Membrane protein (25 μl, 5 μg) is mixed with WGA SPA beads (Amersham) and stirred for 1 h. To an assay plate (Perkin Elmer FlexiPlate) is added 25 μl of test compound prepared in Binding buffer [100 mM Tris (pH 7.5), 140 mM NaCl, 5% glycerol, 2 mM EDTA, 0.5 mM TCEP, 0.05% Tween 20], 25 μl of [^125I]L-691,831 (an iodinated analog of MK-591, Charleson et al. Mol. Pharmacol., 41, 873-879, 1992) and finally 50 μl of the bead/protein mixture. (final concentrations: beads, 200 μg/well; protein, 5μg/well; [^125I] probe, 0 08 nM/well(17 nCi/well). The plates are shaken for 2 h before reading on a Microbeta plate reader. Non-specific binding is determined by the addition of 10 μM cold L-691,831 compound.

| Structure (SMILES) | IC50 |
| --- | --- |
| Nc1ncc(-c2ccc(C3(C(=O)Nc4ccc5c(c4)OCO5)CCOCC3)cc2)cn1 [Example 9, 4-[4-(2-aminopyrimidin-5-yl)phenyl]-N-(1,3-benzodioxol-5-yl)tetrahydro-2H-pyran-4-carboxamide] | 200 nM |
| Cc1cc(C)nc(NC(=O)C2(c3ccc(-c4cnc(N)nc4)cc3)CCOCC2)c1 [Example 10, 4-[4-(2-aminopyrimidin-5-yl)phenyl]-N-(4,6-dimethylpyridin-2-yl)tetrahydro-2H-pyran-4-carboxamide] | 240 nM |
| CC(C)(C)c1ccc(NC(=O)C2(c3ccc(-c4cnc(N)nc4)cc3)CCOCC2)cc1 [Example 17, 4-[4-(2-aminopyrimidin-5-yl)phenyl]-N-(4-tert-butylphenyl)tetrahydro-2H-pyran-4-carboxamide] | 330 nM |
| CC(=O)N1CCc2ccc(NC(=O)C3(c4ccc(-c5cnc(N)nc5)cc4)CCOCC3)cc21 [Example 29, N-(1-acetyl-2,3-dihydro-1H-indol-6-yl)-4-[4-(2-aminopyrimidin-5-yl)phenyl]tetrahydro-2H-pyran-4-carboxamide] | 190 nM |
| Nc1ncc(-c2ccc(C3(C(=O)Nc4cccc(S(=O)(=O)N5CCOCC5)c4)CCOCC3)cc2)cn1 [Example 35, 4-[4-(2-aminopyrimidin-5-yl)phenyl]-N-[3-(mopholin-4-ylsulfonyl)phenyl]tetrahydro-2H-pyran-4-carboxamide] | 390 nM |
| CC(=O)N1CCc2cc(NC(=O)C3(c4ccc(-c5cnc(N)nc5)cc4)CCOCC3)ccc21 [Example 42, N-(1-acetyl-2,3-dihydro-1H-indol-5-yl)-4-[4-(2-aminopyrimidin-5-yl)phenyl]tetrahydro-2H-pyran-4-carboxamide] | 310 nM |
| Nc1ncc(-c2ccc(C3(C(=O)Nc4cccc(S(=O)(=O)C(F)(F)F)c4)CCOCC3)cc2)cn1 [Example 44, 4-[4-(2-aminopyrimidin-5-yl)phenyl]-N-{3-[(trifluoromethyl)sulfonyl]phenyl}tetrahydro-2H-pyran-4-carboxamide] | 270 nM |
| Nc1ncc(-c2ccc(C3(C(=O)Nc4cccc(CN5CCCC5)c4)CCOCC3)cc2)cn1 [Example 50, 4-[4-(2-aminopyrimidin-5-yl)phenyl]-N-[3-(pyrrolidin-1-ylmethyl)phenyl]tetrahydro-2H-pyran-4-carboxamide] | 440 nM |
| CN1CCN(c2cccc(NC(=O)C3(c4ccc(-c5cnc(N)nc5)cc4)CCOCC3)c2)CC1 [Example 53, 4-[4-(2-aminopyrimidin-5-yl)phenyl]-N-[3-(4-methylpiperazin-1-yl)phenyl]tetrahydro-2H-pyran-4-carboxamide] | 280 nM |
| Nc1ncc(-c2ccc(C3(C(=O)Nc4cc(-c5ccccn5)no4)CCOCC3)cc2)cn1 [Example 56, 4-[4-(2-aminopyrimidin-5-yl)phenyl]-N-[3-(pyridin-2-yl)-1,2-oxazol-5-yl]tetrahydro-2H-pyran-4-carboxamide] | 380 nM |
| Nc1ncc(-c2ccc(C3(C(=O)Nc4cc(-c5cccnc5)no4)CCOCC3)cc2)cn1 [Example 57, 4-[4-(2-aminopyrimidin-5-yl)phenyl]-N-[3-(pyridin-3-yl)-1,2-oxazol-5-yl]tetrahydro-2H-pyran-4-carboxamide] | 260 nM |
| Cn1c(=O)c2cc(NC(=O)C3(c4ccc(-c5cnc(N)nc5)cc4)CCOCC3)cnc2n(C)c1=O [Example 69, 4-[4-(2-aminopyrimidin-5-yl)phenyl]-N-(1,3-dimethyl-2,4-dioxo-1,2,3,4-tetrahydropyrido[2,3-d]pyrimidin-6-yl)tetrahydro-2H-pyran-4-carboxamide] | 260 nM |
| CCOC(=O)c1ccnc(NC(=O)C2(c3ccc(-c4cnc(N)nc4)cc3)CCOCC2)c1 [Example 84, ethyl 2-[({4-[4-(2-aminopyrimidin-5-yl)phenyl]tetrahydro-2H-pyran-4-yl}carbonyl)amino]pyridine-4-carboxylate] | 180 nM |
| Cc1ccnc(NC(=O)C2(c3ccc(-c4cnc(N)nc4)cc3)CCOCC2)c1 [Example 140, 4-[4-(2-aminopyrimidin-5-yl)phenyl]-N-(4-methylpyridin-2-yl)tetrahydro-2H-pyran-4-carboxamide] | 230 nM |
| Cc1cccc(NC(=O)C2(c3ccc(-c4cnc(N)nc4)cc3)CCOCC2)n1 [Example 141, 4-[4-(2-aminopyrimidin-5-yl)phenyl]-N-(6-methylpyridin-2-yl)tetrahydro-2H-pyran-4-carboxamide] | 190 nM |
| Cc1cccc(-c2cnc(NC(=O)C3(c4ccc(-c5cnc(N)nc5)cc4)CCOCC3)nc2)c1 [Example 156, 4-[4-(2-aminopyrimidin-5-yl)phenyl]-N-[5-(3-methylphenyl)pyrimidin-2-yl]tetrahydro-2H-pyran-4-carboxamide] | 490 nM |

Now those with a lower IC50, led by results:

| IC50 | Structure (SMILES) |
| --- | --- |
| 150 nM | Nc1ncc(-c2ccc(C3(C(=O)Nc4ccc5c(c4)CCC5)CCOCC3)cc2)cn1 [Example 6, 4-[4-(2-aminopyrimidin-5-yl)phenyl]-N-(2,3-dihydro-1H-inden-5-yl)tetrahydro-2H-pyran-4-carboxamide] |
| 140 nM | Nc1ncc(-c2ccc(C3(C(=O)Nc4cc(C(F)(F)F)ccn4)CCOCC3)cc2)cn1 [Example 31, 4-[4-(2-aminopyrimidin-5-yl)phenyl]-N-[4-(trifluoromethyl)pyridin-2-yl]tetrahydro-2H-pyran-4-carboxamide] |
| 121 nM | Nc1ncc(-c2ccc(C3(C(=O)Nc4ccc(Cc5ccncc5)cc4)CCOCC3)cc2)cn1 [Example 28, 4-[4-(2-aminopyrimidin-5-yl)phenyl]-N-[4-(pyridin-4-ylmethyl)phenyl]tetrahydro-2H-pyran-4-carboxamide] |
| 120 nM | CCOC(=O)c1sc(NC(=O)C2(c3ccc(-c4cnc(N)nc4)cc3)CCOCC2)nc1-c1ccccc1 [Example 19, ethyl 2-[({4-[4-(2-aminopyrimidin-5-yl)phenyl]tetrahydro-2H-pyran-4-yl}carbonyl)amino]-4-phenyl-1,3-thiazole-5-carboxylate] |
| 110 nM | CN(C)S(=O)(=O)c1cccc(NC(=O)C2(c3ccc(-c4cnc(N)nc4)cc3)CCOCC2)c1 [Example 77, 4-[4-(2-aminopyrimidin-5-yl)phenyl]-N-[3-(dimethylsulfamoyl)phenyl] tetrahydro-2H-pyran-4-carboxamide] |
| 110 nM | Cc1ccc(NC(=O)C2(c3ccc(-c4cnc(N)nc4)cc3)CCOCC2)nc1 [Example 139, 4-[4-(2-aminopyrimidin-5-yl)phenyl]-N-(5-methylpyridin-2-yl)tetrahydro-2H-pyran-4-carboxamide] |
| 47 nM | Nc1ncc(-c2ccc(C3(C(=O)Nc4ccc(O)c(C(=O)O)c4)CCC3)cc2)cn1 [Example 101, 5-[({1-[4-(2-aminopyrimidin-5-yl)phenyl]cyclobutyl}carbonyl)amino]-2-hydroxybenzoic acid] |
| 26 nM | Nc1ncc(-c2ccc(C3(C(=O)Nc4ccc(C(=O)O)cn4)CCC3)cc2)cn1 [Example 96, 6-[({1-[4-(2-aminopyrimidin-5-yl)phenyl]cyclobutyl}carbonyl)amino]pyridine-3-carboxylic acid] |
| 17.5 nM | CS(=O)(=O)NC(=O)c1ccc(NC(=O)C2(c3ccc(-c4cnc(N)nc4)cc3)CCC2)nc1 [Example 105, 6-[({1-[4-(2-aminopyrimidin-5-yl)phenyl]cyclobutyl}carbonyl)amino]-N-(methylsulfonyl)pyridine-3-carboxamide] |
